According to patent publication US7598244B2, “[1,2,4]triazolo[1,5,a]pyrimidin-2-ylurea derivative and use thereof” (Nippon Kayaku Kabushiki Kaisha, priority 2003, dated 2009):

What was measured:
CD83 = assay: Expression of antigen-presenting and costimulatory molecules of human peripheral blood-derived dendritic cells: CD83; assay type: cell-based
Description: Action on Expression of Antigen-Presenting Molecules and Costimulatory Molecules of Human Peripheral Blood-Derived Dendritic Cells
The dendritic cells obtained by the same method as in Test Example 2 were suspended in RPMI 1640 comprising 10% FCS containing 500 U/ml GM-CSF, 50 ng/ml IL-4, and 100 U/ml human recombinant tumor necrosis factor (2.5×10^6 cells/ml). Thereafter, the suspension was inoculated into a 6-well plate at an amount of 2.0 ml/well, and the test compound was then added thereto. The mixture was cultured at 37° C. for 3 days in an incubator containing 5% carbon dioxide. Thereafter, the suspended cells were recovered. The cells were then stained with fluoroisothiocyanate-labeled mouse monoclonal antibodies reacting with MHC class I (Bechman Coulter), CD1a (Immunotech), CD40 (Pharmingen), CD80 (Pharmingen), and CD83 (Immunotech). Thereafter, mean fluorescence intensity and the ratio of positive cells were measured by flow cytometry. The expression level was calculated by the formula “the mean fluorescence intensity x the ratio of positive cells,” and the inhibition rate of the surface antigen expression level of dendritic cells was then obtained by the following formula (8).
[formula] • Eexp: Expression level of surface antigens of dendritic cells cultured in the presence of test compound • Cexp: Expression level of surface antigens of dendritic cells cultured in the absence of test compound

[1] = test system: (C57BL/6XB6. C—H2^bml) F1 mice; assay: Life-lengthening effect on graft versus host disease (GVHD); assay type: in vivo, mouse; conditions: oral, once a day
Description: Life-Lengthening Effect on Graft Versus Host Disease (GVHD)
The present test was carried out by modification of the method of Jonathan et al. (Jonathan et al., Blood, p. 93 (1999)). First, 6.0 Gy X-ray was applied to (C57BL/6XB6. C—H2^bml) F1 mice (produced by mating 6XB6.C—H2^bml mice (Jackson Laboratory) with C57BL/6 mice (Charles River Japan); female; 8 to 12-week-old). Thereafter, CD8 positive T cells (1.25×10^6 cells) prepared from the splenic cells of C57BL/6 mice (Charles River Japan; female; 8-week-old) were intravenously injected into the above (C57BL/6XB6. C—H2^bml) F1 mice. From the day before the injection, the test compound having each diluted concentration or 0.5% carboxymethyl cellulose used as a solvent was orally administered to the mice once a day for 7 to 30 consecutive days. The day on which the transplantation was conducted was defined as day 0. Based on the median of the survival days of each group, the prolongation rate of such survival dates was calculated using the following formula (7). Thus, the effect of the test compound on GVHD was analyzed.
[formula] • Eexp: Median of survival days of test compound administration group • Cexp: Median of survival days of solvent administration group

[2] = test system: MHC class I molecules of T1 cells (human lymphoma cell line 174×CEM.); assay: Effect on expression of MHC class I from T1 cells (flow cytometry, MFI); assay type: cell-based; conditions: 3 days culture
How it was run: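 EC20 is the compound level that lowers MHC class I MFI by 20% relative to compound-free cultures. Read-out was flow cytometry after FITC W6/32 staining.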

[3] = test system: MHC class I molecules of human peripheral blood-derived dendritic cells; assay: Effect on expression of MHC class I molecules from human peripheral blood-derived dendritic cells; assay type: cell-based; conditions: dendritic cells matured with TNF-α, 3 days; read-out: EC50 (reduction of 50% of the number of cells wherein MHC class I molecules were highly expressed)
How it was run: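 Human blood CD14+ monocytes differentiated 7 days with GM-CSF 500 U/ml and IL-4 50 ng/ml into immature dendritic cells. These were matured with 100 U/ml TNF-α plus test compound for 3 days at 37 °C. MHC class I-high fraction measured by flow cytometry (W6/32 antibody); EC50 is concentration giving 50% reduction versus untreated.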

SMILES: CC(C)NC(=O)Nc1nc2nccc(-c3cccs3)n2n1 [Example 029, 1-isopropyl-3-(7-thiophen-2-yl[1,2,4]triazolo[1,5-a]pyrimidin-2-yl)urea]
- Expression inhibition rate by test compound (%), CD83 (CD83; Analyte 1, 3 days): 62.6%
- Expression inhibition rate by test compound (%), CD83 (CD83; Analyte 2, 3 days): 88.6%
- Expression inhibition rate by test compound (%), CD83 (CD83; Analyte 3, 3 days): 42.7%
- Lengthening rate of survival days (%) ([1]; 25 mg/kg/single administration): 75%
- Lengthening rate of survival days (%) ([1]; 100 mg/kg/single administration): 200%
- EC20 (concentration necessary for suppressing 20% of the expression level of MHC class I molecules) [2]: 0.234 µM
- EC50 [3]: 480 nM
